{"source": "patent US20150105252A1", "about": "“SUBSTITUTED PYRAZOLES AS HERBICIDES” (E I DU PONT DE NEMOURS AND COMPANY, priority 2013, published 2015)", "key": {"velvetleaf [1]": {"test_system": "velvetleaf", "experiment": "Test C preemergence", "format": "in vivo, Abutilon theophrasti", "how_it_was_run": "(§1)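 In this greenhouse assay, seeded soil (loam plus sand) or emerged seedlings in peat-vermiculite medium were treated with formulated compound. Roughly two weeks later (13–15 days), each species was scored visually relative to controls, from 0 for no effect to 100 for complete control.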"}, "johnsongrass [2]": {"test_system": "johnsongrass", "experiment": "Test C postemergence", "format": "in vivo, Sorghum halepense", "description": "(§2) Seeds of plant species selected from blackgrass (Alopecurus myosuroides), ryegrass, Italian (Italian ryegrass, Lolium multiflorum), wheat (winter wheat, Triticum aestivum), galium (catchweed bedstraw, Galium aparine), corn (Zea mays), crabgrass, large (large crabgrass, Digitaria sanguinalis), foxtail, giant (giant foxtail, Setaria faberii), johnsongrass (Sorghum halepense), lambsquarters (Chenopodium album), morningglory (Ipomoea coccinea), nutsedge, yellow (yellow nutsedge, Cyperus esculentus), pigweed (redroot pigweed, Amaranthus retroflexus), ragweed (common ragweed, Ambrosia elation), soybean (Glycine max), barnyardgrass (Echinochloa crus-galli), oilseed rape (Brassica napus), waterhemp (common waterhemp, Amaranthus rudis), oat, wild (wild oat, Avena fatua), kochia (Kochia scoparia), Surinam grass (Brachiaria decumbens), foxtail, green (green foxtail, Setaria viridis), goosegrass (Eleusine indica), bromegrass, downy (downy bromegrass, Bromus tectorum), nightshade (eastern black nightshade, Solanum ptycanthum), cocklebur (common cocklebur, Xanthium strumarium), cupgrass, woolly (woolly cupgrass, Eriochloa villosa), bermudagrass (Cynodon dactylon), sunflower, (common oilseed sunflower, Helianthus annuus), Russian thistle (Salsola kali), and velvetleaf (Abutilon theophrasti) were planted into a blend of loam soil and sand and treated preemergence with test chemicals formulated in a non-phytotoxic solvent mixture which included a surfactant.\n(§3) At the same time, plants selected from these crop and weed species and also chickweed (common chickweed, Stellaria media), canarygrass (littleseed canarygrass, Phalaris minor), and deadnettle (henbit deadnettle, Lamium amplexicaule), were planted in pots containing Redi-Earth® planting medium (Scotts Company, 14111 Scottslawn Road, Marysville, Ohio 43041) comprising spaghnum peat moss, vermiculite, wetting agent and starter nutrients and treated with postemergence applications of test chemicals formulated in the same manner. Plants ranged in height from 2 to 18 cm (1- to 4-leaf stage) for postemergence treatments. Treated plants and controls were maintained in a greenhouse for 13 to 15 days, after which time all species were compared to controls and visually evaluated. Plant response ratings, summarized in Table C, are based on a scale of 0 to 100 where 0 is no effect and 100 is complete control. A dash (-) response means no test result."}, "soybean": {"test_system": "soybean", "experiment": "Test C preemergence", "format": "in vivo, Glycine max", "how_it_was_run": "as §1"}, "chickweed": {"test_system": "chickweed", "experiment": "Test C postemergence", "format": "in vivo, Stellaria media", "description": "as §2, §3"}, "blackgrass": {"test_system": "blackgrass", "experiment": "Test C postemergence", "format": "in vivo, Alopecurus myosuroides", "description": "as §2, §3"}, "barnyardgrass": {"test_system": "barnyardgrass", "experiment": "Test C preemergence", "format": "in vivo, Echinochloa crus-galli", "how_it_was_run": "as §1"}, "galium": {"test_system": "galium", "experiment": "Test C preemergence", "format": "in vivo, Galium aparine", "how_it_was_run": "as §1"}, "crabgrass, large [3]": {"test_system": "crabgrass, large", "experiment": "Test A postemergence", "format": "in vivo, Digitaria sanguinalis", "how_it_was_run": "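Injury readout: eye-scored versus untreated controls, 0 to 100. Exposure period: ~10 days, greenhouse. Application: soil-directed spray over sown seed (pre) or spray on seedlings 2–10 cm tall with one or two leaves (post), compound carried in non-phytotoxic solvent including surfactant.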"}, "johnsongrass [4]": {"test_system": "johnsongrass", "experiment": "Test C preemergence", "format": "in vivo, Sorghum halepense", "how_it_was_run": "as §1"}, "crabgrass, large [5]": {"test_system": "crabgrass, large", "experiment": "Test C postemergence", "format": "in vivo, Digitaria sanguinalis", "how_it_was_run": "as §1"}, "velvetleaf [6]": {"test_system": "velvetleaf", "experiment": "Test C postemergence", "format": "in vivo, Abutilon theophrasti", "description": "as §2, §3"}, "morningglory": {"test_system": "morningglory", "experiment": "Test C postemergence", "format": "in vivo, Ipomoea coccinea", "how_it_was_run": "as §1"}, "[7]": {"conditions": "preemergence, 31 g ai/ha, visual rating, scale 0 to 100 (0 no effect, 100 complete control), 13 to 15 days"}, "[8]": {"conditions": "preemergence, 62 g ai/ha, 13 to 15 days, scale 0 to 100, 0 = no effect, 100 = complete control"}, "[9]": {"conditions": "preemergence, 125 g ai/ha, scale 0 to 100, 0 is no effect, 100 is complete control"}, "[10]": {"conditions": "Postemergence, 31 g ai/ha, visually evaluated after 13 to 15 days"}, "[11]": {"conditions": "postemergence, 62 g ai/ha, scale 0 to 100"}, "[12]": {"conditions": "postemergence, 250 g ai/ha, scale 0 to 100 (0 no effect, 100 complete control)"}, "[13]": {"conditions": "postemergence, 125 g ai/ha, scale 0 to 100, 0 no effect, 100 complete control"}}, "data": [{"molecule": "CCc1cc(C(=O)NCC(F)(F)F)nn1Cc1ccnc(C(F)(F)F)c1", "note": "[Compound 78, 5-ethyl-N-(2,2,2-trifluoroethyl)-1-[[(2-trifluoromethyl)-4-pyridinyl]methyl]-1H-pyrazole-3-carboxamide]", "values": [{"measurement": "Plant response rating (scale of 0 to 100), Velvetleaf", "setting": "velvetleaf [1]; Preemergence, 250 g ai/ha", "value": 100}, {"measurement": "Velvetleaf plant response rating", "setting": "velvetleaf [1]; [7]", "value": 80}, {"measurement": "Plant response rating, Velvetleaf", "setting": "velvetleaf [1]; [8]", "value": 100}, {"measurement": "Velvetleaf plant response rating", "setting": "velvetleaf [1]; [9]", "value": 100}, {"measurement": "Plant response rating (scale of 0 to 100 where 0 is no effect and 100 is complete control), Johnsongrass", "setting": "johnsongrass [2]; [10]", "value": 0}, {"measurement": "Johnsongrass plant response rating", "setting": "johnsongrass [2]; [11]", "value": 5}, {"measurement": "Plant response rating, Johnsongrass", "setting": "johnsongrass [2]; [12]", "value": 75}, {"measurement": "Plant response rating, Johnsongrass", "setting": "johnsongrass [2]; [13]", "value": 55}, {"measurement": "Plant response rating (scale of 0 to 100), Soybean", "setting": "soybean; Preemergence, 250 g ai/ha", "value": 98}, {"measurement": "Soybean plant response rating", "setting": "soybean; [7]", "value": 98}, {"measurement": "Plant response rating, Soybean", "setting": "soybean; [8]", "value": 98}, {"measurement": "Soybean plant response rating", "setting": "soybean; [9]", "value": 98}, {"measurement": "Plant response rating (scale of 0 to 100 where 0 is no effect and 100 is complete control), Chickweed", "setting": "chickweed; [10]", "value": 65}, {"measurement": "Chickweed plant response rating", "setting": "chickweed; [11]", "value": 80}, {"measurement": "Plant response rating, Chickweed", "setting": "chickweed; [12]", "value": 85}, {"measurement": "Plant response rating, Chickweed", "setting": "chickweed; [13]", "value": 80}, {"measurement": "Plant response rating (scale of 0 to 100 where 0 is no effect and 100 is complete control), Blackgrass", "setting": "blackgrass; [10]", "value": 5}, {"measurement": "Blackgrass plant response rating", "setting": "blackgrass; [11]", "value": 5}, {"measurement": "Plant response rating, Blackgrass", "setting": "blackgrass; [12]", "value": 50}, {"measurement": "Plant response rating, Blackgrass", "setting": "blackgrass; [13]", "value": 10}, {"measurement": "Plant response rating (scale of 0 to 100), Barnyardgrass", "setting": "barnyardgrass; Preemergence, 250 g ai/ha", "value": 100}, {"measurement": "Barnyardgrass plant response rating", "setting": "barnyardgrass; preemergence, 31 g ai/ha, scale 0 to 100 (0 no effect, 100 complete control), 13 to 15 days", "value": 100}, {"measurement": "Plant response rating, Barnyardgrass", "setting": "barnyardgrass; [8]", "value": 100}, {"measurement": "Barnyardgrass plant response rating", "setting": "barnyardgrass; [9]", "value": 100}, {"measurement": "Plant response rating (scale of 0 to 100), Galium", "setting": "galium; Preemergence, 250 g ai/ha", "value": 100}, {"measurement": "Galium plant response rating", "setting": "galium; [7]", "value": 85}, {"measurement": "Plant response rating, Galium", "setting": "galium; [8]", "value": 100}, {"measurement": "Galium plant response rating", "setting": "galium; [9]", "value": 100}, {"measurement": "Crabgrass, Large plant response rating", "setting": "crabgrass, large [3]; Postemergence, 500 g ai/ha, visual rating after approx. 10 days, 0 to 100 scale (0 no effect, 100 complete control)", "value": 100}, {"measurement": "Crabgrass, Large plant response rating", "setting": "crabgrass, large [3]; postemergence, 125 g ai/ha, about 10 days, visual rating on 0 to 100 scale (0 no effect, 100 complete control)", "value": 90}, {"measurement": "Plant response rating (scale of 0 to 100), Johnsongrass", "setting": "johnsongrass [4]; Preemergence, 250 g ai/ha", "value": 100}, {"measurement": "Johnsongrass plant response rating", "setting": "johnsongrass [4]; [7]", "value": 85}, {"measurement": "Plant response rating, Johnsongrass", "setting": "johnsongrass [4]; [8]", "value": 95}, {"measurement": "Johnsongrass plant response rating", "setting": "johnsongrass [4]; [9]", "value": 100}, {"measurement": "Plant response rating (scale of 0 to 100 where 0 is no effect and 100 is complete control), Crabgrass, Large", "setting": "crabgrass, large [5]; [10]", "value": 15}, {"measurement": "Crabgrass, Large plant response rating", "setting": "crabgrass, large [5]; [11]", "value": 25}, {"measurement": "Plant response rating, Crabgrass, Large", "setting": "crabgrass, large [5]; [12]", "value": 90}, {"measurement": "Plant response rating, Crabgrass, Large", "setting": "crabgrass, large [5]; [13]", "value": 80}, {"measurement": "Plant response rating (scale of 0 to 100 where 0 is no effect and 100 is complete control), Velvetleaf", "setting": "velvetleaf [6]; [10]", "value": 15}, {"measurement": "Velvetleaf plant response rating", "setting": "velvetleaf [6]; [11]", "value": 20}, {"measurement": "Plant response rating, Velvetleaf", "setting": "velvetleaf [6]; [12]", "value": 75}, {"measurement": "Plant response rating, Velvetleaf", "setting": "velvetleaf [6]; [13]", "value": 50}, {"measurement": "Plant response rating (scale of 0 to 100 where 0 is no effect and 100 is complete control), Morningglory", "setting": "morningglory; [10]", "value": 70}, {"measurement": "Morningglory plant response rating", "setting": "morningglory; [11]", "value": 80}, {"measurement": "Plant response rating, Morningglory", "setting": "morningglory; [12]", "value": 100}, {"measurement": "Plant response rating, Morningglory", "setting": "morningglory; [13]", "value": 90}]}]}
